Common to all, as to assay type: functional, cell-based
Experiment [1] deals with MCF7. As to the kind of experiment: Cytotoxicity activity against human MCF7 cells assessed as reduction in cell viability after 72 hrs by MTT assay. Conditions: MCF7, 72 h.
Experiment [2] relates to HT-29. As to the kind of experiment: Cytotoxicity activity against human HT-29 cells assessed as reduction in cell viability after 72 hrs by MTT assay. Conditions: HT-29, 72 h. Background: Tetrazolium dyes change colour on reduction, which living cells bring about.
For experiment [3], the system named is KB. As to the kind of experiment: Cytotoxicity activity against human KB cells assessed as reduction in cell viability after 72 hrs by MTT assay.
Experiment [4] concerns HeLa S3. As to the kind of experiment: Cytotoxicity activity against human HeLa S3 cells assessed as reduction in cell viability after 72 hrs by MTT assay. Conditions: HeLa S3, 72 h.
Experiment [5] has as its system HepG2. As to the kind of experiment: Cytotoxicity activity against human HepG2 cells assessed as reduction in cell viability after 72 hrs by MTT assay. To be noted: HepG2, 72 h.

The term pIC50 denotes −log10 of the IC50, conventionally taken in molar units.

pIC50: −log10 of the molar value. Bounds are passed on as bounds.

Turning to `CC(C)=CC[C@@H]1C[C@]23C[C@@H](CC=C(C)C)C(C)(C)[C@](CC=C(C)C)(C(=O)C(C(=O)c4ccc(O)c(O)c4)=C2OC1(C)C)C3=O`, the pIC50 is 5.14 in experiment [1]; below 5.00 in experiment [2]; 5.28 in experiment [3]; below 5.00 in experiment [4]; below 5.00 in experiment [5].

With `C=C(C)[C@H]1C[C@@H](C[C@@]23C[C@@H](/C=C/C(C)C)C(C)(C)[C@@](CC=C(C)C)(C2=O)c2oc4cc(O)c(O)cc4c(=O)c2C3=O)C1(C)C`, the pIC50 in experiment [1] is below 5.00; in experiment [2], below 5.00; in experiment [3], 5.28; in experiment [4] it was 5.21; in experiment [5], below 5.00.

As for `C=C(C)[C@H]1C[C@@H](C[C@]23C[C@@H](/C=C/C(C)C)C(C)(C)[C@](C/C=C(\C)CO)(C(=O)C(C(=O)c4ccc(O)c(O)c4)=C2O)C3=O)C1(C)C`, the pIC50 in experiment [3] is below 5.00; in experiment [4], 5.10.

In the case of `C=C(C)[C@H]1C[C@@H](C[C@]23C[C@@H](/C=C/C(C)C)C(C)(C)[C@](CC=C(C)C)(C(=O)C(C(=O)c4ccc(O)c(O)c4)=C2O)C3=O)C1(C)C`, the pIC50 was below 5.00 in experiment [1]; below 5.00 in experiment [2]; 5.15 in experiment [3]; 5.14 in experiment [4]; below 5.00 in experiment [5].

Regarding `CC(=O)[C@H]1C[C@@H](C[C@]23C[C@@H](/C=C/C(C)C)C(C)(C)[C@](CC=C(C)C)(C(=O)C(C(=O)c4ccc(O)c(O)c4)=C2O)C3=O)C1(C)C`, the negative logarithm of the IC50 (pIC50) in experiment [1] is below 5.00; in experiment [2], below 5.00; in experiment [3] it was 5.13; in experiment [4], below 5.00; in experiment [5], below 5.00.

Regarding `C=C(C)[C@H]1C[C@@H](C[C@]23C[C@@H](/C=C/C(C)C)C(C)(C)[C@@]4(C[C@@H](C(C)(C)O)OC4=C(C(=O)c4ccc(O)c(O)c4)C2=O)C3=O)C1(C)C`, the pIC50 in experiment [1] was 5.03; in experiment [2], below 5.00; in experiment [3], 5.23; in experiment [4], 5.22; in experiment [5], 5.03.

Take `C=C(C)[C@H]1C[C@@H](C[C@]23C[C@@H](/C=C/C(C)C)C(C)(C)[C@](CC=C(C)C)(C(=O)C(C(=O)c4ccccc4)=C2O)C3=O)C1(C)C`: the pIC50 is below 5.00 in experiment [1]; below 5.00 in experiment [2]; 5.00 in experiment [3]; below 5.00 in experiment [4]; below 5.00 in experiment [5].

As to `COc1cccc2c1C(=O)c1c(O)c3c(c(O)c1C2=O)C[C@@](O)(C(=O)CO)C[C@@H]3O[C@H]1C[C@H](N)[C@H](O)[C@H](C)O1` [DOXORUBICIN], the pIC50 was 6.23 in experiment [2], 7.70 in experiment [3], 6.82 in experiment [4] and 6.00 in experiment [5].

Source of the values: ChEMBL document CHEMBL4665689, “Picrorhizones A-H, Polyprenylated Benzoylphloroglucinols from the Stem Bark of Garcinia picrorhiza” (J Nat Prod, 2020).
